In patent publication US8815864B2, “Indanyloxydihydrobenzofuranylacetic acids” (Boehringer Ingelheim International GmbH, priority 2012, dated 2014):

These compounds were tested against human GPR40 receptor (Homo sapiens, UniProt O14842) (assay: IP1 accumulation measurements using the IPOne assay system). Settings: 1321N1 cells stably expressing human GPR40; stimulation 1 h at 37° C.
Format: cell-based
Procedure: IP1 accumulation measurements using the IPOne assay system—1321N1 cells stably expressing human GPR40 receptor (Euroscreen, Belgium) are seeded 24 h before the assay in white 384-well plates in culture medium containing 10% FCS, 1% Na-Pyruvate and 400 μg/mL G418. IP1 is assayed according to the manufacturer's description (Cisbio Bioassays, France). In brief, the assay is started by substitution of the culture medium by stimulation buffer (Hepes 10 mM, CaCl2 1 mM, MgCl2 0.5 mM, KCl 4.2 mM, NaCl 146 mM, glucose 5.5 mM and LiCl 50 mM, pH 7.4). Cells are stimulated for 1 h at 37° C., 5% CO2 by addition of the compounds that are diluted in stimulation buffer containing LiCl. Assays are stopped by adding HTRF-conjugates (IP1-d2 and Anti-IP1 cryptate Tb) and lysis buffer, provided by the manufacturer. After an incubation time of 1 h at room temperature plates are measured using an EnVision™, Perkin Elmer. The obtained fluorescence ratios at 665/615 […] are then used to calculate the pEC50 values using Assay Explorer 3.3 Software (Accelrys, Inc.) by interpolation using an IP1 reference curve and subsequent sigmoidal curve fitting allowing for a variable hill slope.

human GPR40 receptor, sequence (O14842 whole entry): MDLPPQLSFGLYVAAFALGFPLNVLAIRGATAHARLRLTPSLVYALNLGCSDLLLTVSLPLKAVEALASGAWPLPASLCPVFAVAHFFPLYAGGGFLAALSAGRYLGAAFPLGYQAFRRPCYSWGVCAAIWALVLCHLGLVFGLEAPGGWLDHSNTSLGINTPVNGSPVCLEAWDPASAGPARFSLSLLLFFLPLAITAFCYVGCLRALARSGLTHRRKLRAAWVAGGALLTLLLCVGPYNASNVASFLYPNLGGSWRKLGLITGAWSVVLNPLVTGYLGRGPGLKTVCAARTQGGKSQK

SMILES	EC50
COc1ccc(Oc2ccc(F)c3c2CC[C@H]3Oc2ccc3c(c2)OC[C@H]3CC(=O)O)cc1 [Example 3, {(S)-6-[(R)-7-Fluoro-4-(4-methoxy-phenoxy)-indan-1-yloxy]-2,3-dihydro-benzofuran-3-yl}-acetic acid]	3 nM
O=C(O)C[C@@H]1COc2cc(O[C@@H]3CCc4c(Oc5ccncc5)ccc(F)c43)ccc21 [Example 11, {(S)-6-[(R)-7-Fluoro-4-pyrid-4-yloxy-indan-1-yloxy]-2,3-dihydro-benzofuran-3-yl}-acetic acid]	18 nM
Cn1ncc2ccc(Oc3ccc(F)c4c3CC[C@H]4Oc3ccc4c(c3)OC[C@H]4CC(=O)O)cc21 [Example 46, {(S)-6-[(R)-7-Fluoro-4-(1-methyl-1H-indazol-6-yloxy)-indan-1-yloxy]-2,3-dihydro-benzofuran-3-yl}-acetic acid]	3 nM
COc1cccc(Oc2ccc(F)c3c2CC[C@H]3Oc2ccc3c(c2)OC[C@H]3CC(=O)O)c1 [Example 2, {(S)-6-[(R)-7-Fluoro-4-(3-methoxy-phenoxy)-indan-1-yloxy]-2,3-dihydro-benzofuran-3-yl}-acetic acid]	6 nM
N#Cc1ccc(F)c(Oc2ccc(F)c3c2CC[C@H]3Oc2ccc3c(c2)OC[C@H]3CC(=O)O)c1 [Example 54, {(S)-6-[(R)-4-(5-Cyano-2-fluoro-phenoxy)-7-fluoro-indan-1-yloxy]-2,3-dihydro-benzofuran-3-yl}-acetic acid]	29 nM
O=C(O)C[C@@H]1COc2cc(O[C@@H]3CCc4c(Oc5ccc6ccccc6n5)ccc(F)c43)ccc21 [Example 40, {(S)-6-[(R)-7-Fluoro-4-(Quinolin-2-yloxy)-indan-1-yloxy]-2,3-dihydro-benzofuran-3-yl}-acetic acid]	22 nM
O=C(O)C[C@@H]1COc2cc(O[C@@H]3CCc4c(Oc5cnccn5)ccc(F)c43)ccc21 [Example 10, {(S)-6-[(R)-7-Fluoro-4-pyrazin-2-yloxy-indan-1-yloxy]-2,3-dihydro-benzofuran-3-yl}-acetic acid]	35 nM
Cc1nc2ccc(Oc3ccc(F)c4c3CC[C@H]4Oc3ccc4c(c3)OC[C@H]4CC(=O)O)cc2o1 [Example 58, {(S)-6-[(R)-7-Fluoro-4-(2-methyl-benzoxazol-6-yloxy)-indan-1-yloxy]-2,3-dihydro-benzofuran-3-yl}-acetic acid]	3 nM
Cc1cccc(C)c1Oc1ccc(F)c2c1CC[C@H]2Oc1ccc2c(c1)OC[C@H]2CC(=O)O [Example 5, {(S)-6-[(R)-7-Fluoro-4-(2,6-dimethyl-phenoxy)-indan-1-yloxy]-2,3-dihydro-benzofuran-3-yl}-acetic acid]	70 nM
Cn1c(Oc2ccc(F)c3c2CC[C@H]3Oc2ccc3c(c2)OC[C@H]3CC(=O)O)nc2ccccc21 [Example 13, {(S)-6-[(R)-7-Fluoro-4-(1-methyl-1H-benzoimidazol-2-yloxy)-indan-1-yloxy]-2,3-dihydro-benzofuran-3-yl}-acetic acid]	216 nM
O=C(O)C[C@@H]1COc2cc(O[C@@H]3CCc4c(Oc5nc6ccccc6o5)ccc(F)c43)ccc21 [Example 19, {(S)-6-[(R)-4-Benzoxazol-2-yloxy-7-fluoro-indan-1-yloxy]-2,3-dihydro-benzofuran-3-yl}-acetic acid]	13 nM
COc1cc(C#N)ccc1Oc1ccc(F)c2c1CC[C@H]2Oc1ccc2c(c1)OC[C@H]2CC(=O)O [Example 52, {(S)-6-[(R)-4-(4-Cyano-2-methoxy-phenoxy)-7-fluoro-indan-1-yloxy]-2,3-dihydro-benzofuran-3-yl}-acetic acid]	6 nM
Cc1nc2cc(Oc3ccc(F)c4c3CC[C@H]4Oc3ccc4c(c3)OC[C@H]4CC(=O)O)ccc2s1 [Example 48, {(S)-6-[(R)-7-Fluoro-4-(2-methyl-benzothiazol-5-yloxy)-indan-1-yloxy]-2,3-dihydro-benzofuran-3-yl}-acetic acid]	7 nM
COc1ccc(Oc2ccc(F)c3c2CC[C@H]3Oc2ccc3c(c2)OC[C@H]3CC(=O)O)cn1 [Example 34, {(S)-6-[(R)-7-Fluoro-4-(2-methoxy-pyrid-5-yloxy)-indan-1-yloxy]-2,3-dihydro-benzofuran-3-yl}-acetic acid]	5 nM
Cc1noc2cc(Oc3ccc(F)c4c3CC[C@H]4Oc3ccc4c(c3)OC[C@H]4CC(=O)O)ccc12 [Example 61, {(S)-6-[(R)-7-Fluoro-4-(3-methyl-benzo[d]isoxazol-6-yloxy)-indan-1-yloxy]-2,3-dihydro-benzofuran-3-yl}-acetic acid]	3 nM
N#Cc1cccc(Oc2ccc(F)c3c2CC[C@H]3Oc2ccc3c(c2)OC[C@H]3CC(=O)O)c1 [Example 27, {(S)-6-[(R)-4-(3-Cyano-phenoxy)-7-fluoro-indan-1-yloxy]-2,3-dihydro-benzofuran-3-yl}-acetic acid]	7 nM

SMILES	EC50
N#Cc1cc(F)c(Oc2ccc(F)c3c2CC[C@H]3Oc2ccc3c(c2)OC[C@H]3CC(=O)O)c(F)c1 [Example 51, {(S)-6-[(R)-4-(4-cyano-2,6-difluoro-phenoxy)-7-fluoro-indan-1-yloxy]-2,3-dihydro-benzofuran-3-yl}-acetic acid]	18 nM
O=C(O)C[C@@H]1COc2cc(O[C@@H]3CCc4c(Oc5cccc6cccnc56)ccc(F)c43)ccc21 [Example 39, {(S)-6-[(R)-7-Fluoro-4-(Quinolin-8-yloxy)-indan-1-yloxy]-2,3-dihydro-benzofuran-3-yl}-acetic acid]	21 nM
N#Cc1ccc(Oc2ccc(F)c3c2CC[C@H]3Oc2ccc3c(c2)OC[C@H]3CC(=O)O)c(F)c1 [Example 22, {(S)-6-[(R)-4-(4-Cyano-2-fluoro-phenoxy)-7-fluoro-indan-1-yloxy]-2,3-dihydro-benzofuran-3-yl}-acetic acid]	3 nM
Cc1cc2c(cnn2C)cc1Oc1ccc(F)c2c1CC[C@H]2Oc1ccc2c(c1)OC[C@H]2CC(=O)O [Example 47, {(S)-6-[(R)-7-Fluoro-4-(1,6-dimethyl-1H-indazol-5-yloxy)-indan-1-yloxy]-2,3-dihydro-benzofuran-3-yl}-acetic acid]	26 nM
O=C(O)C[C@@H]1COc2cc(O[C@@H]3CCc4c(Oc5ccnc(C(F)(F)F)c5)ccc(F)c43)ccc21 [Example 32, {(S)-6-[(R)-7-Fluoro-4-(2-trifluoromethyl-pyrid-4-yloxy)-indan-1-yloxy]-2,3-dihydro-benzofuran-3}-acetic acid]	6 nM
COc1ncc(Oc2ccc(F)c3c2CC[C@H]3Oc2ccc3c(c2)OC[C@H]3CC(=O)O)cn1 [Example 35, {(S)-6-[(R)-7-Fluoro-4-(2-methoxy-pyrimid-5-yloxy)-indan-1-yloxy]-2,3-dihydro-benzofuran-3-yl}-acetic acid]	79 nM
O=C(O)C[C@@H]1COc2cc(O[C@@H]3CCc4c(Oc5nc6ccccc6s5)ccc(F)c43)ccc21 [Example 12, {(S)-6-[(R)-4-Benzothiazol-2-yloxy-7-fluoro-indan-1-yloxy]-2,3-dihydro-benzofuran-3-yl}-acetic acid]	12 nM
N#Cc1ccc(Br)cc1Oc1ccc(F)c2c1CC[C@H]2Oc1ccc2c(c1)OC[C@H]2CC(=O)O [Example 50, {(S)-6-[(R)-4-(5-Bromo-2-cyano-phenoxy)-7-fluoro-indan-1-yloxy]-2,3-dihydro-benzofuran-3-yl}-acetic acid]	6 nM
O=C(O)C[C@@H]1COc2cc(O[C@@H]3CCc4c(Oc5cccnc5)ccc(F)c43)ccc21 [Example 6, {(S)-6-[(R)-7-Fluoro-4-pyrid-3-yloxy-indan-1-yloxy]-2,3-dihydro-benzofuran-3-yl}-acetic acid]	33 nM
N#Cc1ccc(Oc2ccc(F)c3c2CC[C@H]3Oc2ccc3c(c2)OC[C@H]3CC(=O)O)cc1F [Example 29, {(S)-6-[(R)-4-(4-Cyano-3-fluoro-phenoxy)-7-fluoro-indan-1-yloxy]-2,3-dihydro-benzofuran-3-yl}-acetic acid]	6 nM
Cn1ncc2cc(Oc3ccc(F)c4c3CC[C@H]4Oc3ccc4c(c3)OC[C@H]4CC(=O)O)ccc21 [Example 45, {(S)-6-[(R)-7-Fluoro-4-(1-methyl-1H-indazol-5-yloxy)-indan-1-yloxy]-2,3-dihydro-benzofuran-3-yl}-acetic acid]	7 nM
COc1c(F)cc(Oc2ccc(F)c3c2CC[C@H]3Oc2ccc3c(c2)OC[C@H]3CC(=O)O)cc1F [Example 57, {(S)-6-[(R)-4-(3,5-Difluoro-4-methoxy-phenoxy)-7-fluoro-indan-1-yloxy]-2,3-dihydro-benzofuran-3-yl}-acetic acid]	7 nM
COc1cc(Oc2ccc(F)c3c2CC[C@H]3Oc2ccc3c(c2)OC[C@H]3CC(=O)O)ccc1C#N [Example 37, {(S)-6-[(R)-4-(4-Cyano-3-methoxy-phenoxy)-7-fluoro-indan-1-yloxy]-2,3-dihydro-benzofuran-3-yl}-acetic acid]	5 nM
N#Cc1ccc(Oc2ccc(F)c3c2CC[C@H]3Oc2ccc3c(c2)OC[C@H]3CC(=O)O)c(C#N)c1 [Example 41, {(S)-6-[(R)-4-(2,4-Dicyano-phenoxy)-7-fluoro-indan-1-yloxy]-2,3-dihydro-benzofuran-3-yl}-acetic acid]	17 nM
Cc1cccc(Oc2ccc(F)c3c2CC[C@H]3Oc2ccc3c(c2)OC[C@H]3CC(=O)O)n1 [Example 15, {(S)-6-[(R)-7-Fluoro-4-(6-methyl-pyrid-2-yloxy)-indan-1-yloxy]-2,3-dihydro-benzofuran-3-yl}-acetic acid]	31 nM
